Measured values as given in ChEMBL document CHEMBL1201862, “PubChem BioAssay data set” (2004).
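Interpolation was linear, between the two tested concentrations surrounding the appropriate level; five concentrations were tested over 48 hours in 96-well plates. GI50 marks 50% less growth.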 Calls of active or inactive are those of the source. Rule as the data show it: active = GI50 up to about 1.1 µM and inactive = higher.

Columns and labels:
Test in all cases: DTP human tumour cell line panel, 48 h
NCI-H522 = test system: NCI-H522
HCC 2998 = test system: HCC 2998
MCF7 = test system: MCF7
PC-3 = test system: PC-3
UO-31 = test system: UO-31
U-251 = test system: U-251
RPMI-8226 = test system: RPMI-8226
ACHN = test system: ACHN
Malme-3M = test system: Malme-3M
MDA-MB-231 = test system: MDA-MB-231
NCI-H460 = test system: NCI-H460
OVCAR-4 = test system: OVCAR-4
IGROV-1 = test system: IGROV-1
EKVX = test system: EKVX
OVCAR-3 = test system: OVCAR-3
COLO 205 = test system: COLO 205
CCRF-CEM = test system: CCRF-CEM
SN12C = test system: SN12C
SK-MEL-2 = test system: SK-MEL-2

Row | SMILES | GI50 (NCI-H522) | GI50 (HCC 2998) | GI50 (MCF7) | GI50 (PC-3) | GI50 (UO-31) | GI50 (U-251) | GI50 (RPMI-8226) | GI50 (ACHN) | GI50 (Malme-3M) | GI50 (MDA-MB-231) | GI50 (NCI-H460) | GI50 (OVCAR-4) | GI50 (IGROV-1) | GI50 (EKVX) | GI50 (OVCAR-3) | GI50 (COLO 205) | GI50 (CCRF-CEM) | GI50 (SN12C) | GI50 (SK-MEL-2)
1 | CCOC(=O)OC1C(Br)C2CCC1(C)C2(C)C (stereo unspecified) | 15.2 µM (inactive) | 12.3 µM (inactive) | 15 µM (inactive) | 11.3 µM (inactive) | 12 µM (inactive) | 13 µM (inactive) | 5.46 µM (inactive) | 15.3 µM (inactive) | 16.7 µM (inactive) | 11.9 µM (inactive) | 4.79 µM (inactive) | 11.7 µM (inactive) | 18.7 µM (inactive) | 15.5 µM (inactive) | 14.7 µM (inactive) | 13 µM (inactive) | 4.88 µM (inactive) | 14.4 µM (inactive) | –
2 | CCCCCCCCCCCCCCCCCCNc1ccn(C2OC(COP(=O)(O)OCCCCCCCCCCCCCCCC)C(O)C2O)c(=O)n1 (stereo unspecified) | 51.3 µM (inactive) | > 100 µM (inactive) | > 100 µM (inactive) | > 100 µM (inactive) | > 100 µM (inactive) | > 100 µM (inactive) | > 100 µM (inactive) | > 100 µM (inactive) | – | > 100 µM (inactive) | – | > 100 µM (inactive) | > 100 µM (inactive) | > 100 µM (inactive) | > 100 µM (inactive) | > 100 µM (inactive) | 77.8 µM (inactive) | > 100 µM (inactive) | > 100 µM (inactive)
3 | C/C=C1/CN2CCC34c5ccccc5N5C(=O)C(C6CC78c9ccccc9N9C(=O)C=CC(C%10CC7N6C/C%10=C/C)C98)=CC(C1CC23)C54 (stereo unspecified) | 3.11 µM (inactive) | 5.9 µM (inactive) | 2.13 µM (inactive) | 2.1 µM (inactive) | 2.84 µM (inactive) | 5.92 µM (inactive) | – | 7 µM (inactive) | 7.82 µM (inactive) | 2.32 µM (inactive) | 6.65 µM (inactive) | 7.01 µM (inactive) | 4.43 µM (inactive) | 6.64 µM (inactive) | 5.6 µM (inactive) | 5.09 µM (inactive) | 0.501 µM (active) | 5.53 µM (inactive) | 6.53 µM (inactive)
4 | COC(=O)CCCC(=O)C1=NN(c2ccc(Cl)cc2)Cc2ccccc2N1 | 54.7 µM (inactive) | > 100 µM (inactive) | 75.9 µM (inactive) | 91 µM (inactive) | > 100 µM (inactive) | > 100 µM (inactive) | > 100 µM (inactive) | > 100 µM (inactive) | – | > 100 µM (inactive) | – | 20.7 µM (inactive) | > 100 µM (inactive) | 70.6 µM (inactive) | 93.8 µM (inactive) | 54 µM (inactive) | > 100 µM (inactive) | > 100 µM (inactive) | > 100 µM (inactive)
5 | COc1cccc(-c2nc(-c3cnccn3)n(COCCO)n2)c1 | > 100 µM (inactive) | > 100 µM (inactive) | > 100 µM (inactive) | > 100 µM (inactive) | > 100 µM (inactive) | > 100 µM (inactive) | > 100 µM (inactive) | – | – | > 100 µM (inactive) | > 100 µM (inactive) | > 100 µM (inactive) | > 100 µM (inactive) | – | > 100 µM (inactive) | > 100 µM (inactive) | > 100 µM (inactive) | > 100 µM (inactive) | –
6 | N/C(=N\c1cccc(Cl)c1)c1ccccc1N | > 100 µM (inactive) | > 100 µM (inactive) | > 100 µM (inactive) | > 100 µM (inactive) | > 100 µM (inactive) | > 100 µM (inactive) | > 100 µM (inactive) | > 100 µM (inactive) | > 100 µM (inactive) | > 100 µM (inactive) | > 100 µM (inactive) | > 100 µM (inactive) | > 100 µM (inactive) | > 100 µM (inactive) | > 100 µM (inactive) | > 100 µM (inactive) | – | – | –
7 | Oc1nc2c(c(-c3cccc(Cl)c3)n1)COC/C2=C\c1cccc(Cl)c1 | > 100 µM (inactive) | > 100 µM (inactive) | > 100 µM (inactive) | > 100 µM (inactive) | > 100 µM (inactive) | > 100 µM (inactive) | 69.7 µM (inactive) | > 100 µM (inactive) | – | > 100 µM (inactive) | > 100 µM (inactive) | > 100 µM (inactive) | > 100 µM (inactive) | > 100 µM (inactive) | > 100 µM (inactive) | > 100 µM (inactive) | 64.4 µM (inactive) | > 100 µM (inactive) | > 100 µM (inactive)
8 | CC(C)CC(=O)CC(C)[C@]1(CCCOCc2ccccc2)C(=O)N2CCC3(C[C@@]24CCC[C@H]41)OCCO3 (stereo partly specified) | > 10 µM (inactive) | > 10 µM (inactive) | > 10 µM (inactive) | > 10 µM (inactive) | > 10 µM (inactive) | > 10 µM (inactive) | > 10 µM (inactive) | – | – | > 10 µM (inactive) | > 10 µM (inactive) | > 10 µM (inactive) | > 10 µM (inactive) | > 10 µM (inactive) | > 10 µM (inactive) | > 10 µM (inactive) | > 10 µM (inactive) | > 10 µM (inactive) | > 10 µM (inactive)
